According to PubChem BioAssay (NCI):
Several values for one entry are separate records, joined by “and”; a condition that tells them apart may be missing. Identical values can stand only once.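 Following 48 hours of exposure in 96-well plates, responses at five concentrations were used to interpolate endpoints linearly. GI50 marks 50% less growth. Definition used: TGI = concentration required for complete inhibition of growth.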 *1 amine or outer side, *2 acyl side, *3 side chain or, on linkers, in order; H or OH if unused. Where a SMILES comes first, the peptide text is derived from it. [ ]: non-standard residue; d: D form. X56 = CC[C@H](C)[C@H](OC(=O)[C@@H](C)[C@@H](CC)N[*:1])C(=O)[*:2]; X32 = C[C@H](N[*:1])C(=O)C(C)(C)C(=O)[*:2]; NMeY = CN[C@@H](Cc1ccc(O)cc1)C(=O)O; NMeL = CN[C@@H](CC(C)C)C(=O)O; NMeV = CN[C@H](C(=O)O)C(C)C

Assays:
Assay in all cases: NCI anticancer screen, dose series, 48 h
HL-60(TB) leukemia = system: HL-60(TB) leukemia
OVCAR-4 ovarian = system: OVCAR-4 ovarian
OVCAR-8 ovarian = system: OVCAR-8 ovarian
RPMI-8226 leukemia = system: RPMI-8226 leukemia
SF-539 CNS = system: SF-539 CNS
SK-MEL-5 melanoma = system: SK-MEL-5 melanoma
SN12C renal = system: SN12C renal
TK-10 renal = system: TK-10 renal
SNB-75 CNS = system: SNB-75 CNS
MCF7 breast = system: MCF7 breast

Row | SMILES | TGI (HL-60(TB) leukemia) [µM] | TGI (OVCAR-4 ovarian) [µM] | TGI (OVCAR-8 ovarian) [µM] | TGI (RPMI-8226 leukemia) [µM] | TGI (SF-539 CNS) | TGI (SK-MEL-5 melanoma) | TGI (SN12C renal) | TGI (TK-10 renal) | TGI (SNB-75 CNS) [µM] | GI50 (MCF7 breast) [µM] | TGI (MCF7 breast) [µM] | GI50 (OVCAR-4 ovarian) [µM] | GI50 (OVCAR-8 ovarian) [µM] | GI50 (RPMI-8226 leukemia) [µM] | GI50 (SF-539 CNS) [µM] | GI50 (SK-MEL-5 melanoma) [µM] | GI50 (SN12C renal) [µM] | GI50 (TK-10 renal) [µM] | GI50 (SNB-75 CNS) [µM] | GI50 (HL-60(TB) leukemia) [µM]
1 | N#C/C(=C\c1ccc(C(O)P(=O)(O)O)cc1)C(N)=O (configuration not stated) | > 100 | > 100 | > 100 | > 100 | > 100 µM | > 100 µM | > 100 µM | > 100 µM |  |  |  |  |  |  |  |  |  |  |  | 
2 | Cn1cnc([N+](=O)[O-])c1Sc1nnnn1-c1ccccc1 |  | 22.2 | 27.9 | 52.6 | 24.9 µM | 29.9 µM | 29.7 µM | 32.4 µM | 31 |  |  |  |  |  |  |  |  |  |  | 
3 | COc1ccc(N(/C=C/C(=O)C(F)(F)F)CC(=O)c2ccc(Cl)c(Cl)c2)cc1 |  | > 100 | 36.6 | 56.6 | 30.3 µM | 20.4 µM | 33.5 µM | 27.1 µM |  | 5.11 | 28.9 | 32 | 13.2 | 5.56 | 16.1 | 7 | 14.5 | 13.7 |  | 
4 | N#Cc1c(N)nc(N2CCOCC2)c(C#N)c1-c1ccccc1Cl |  | 85.3 | > 100 | > 100 | > 100 µM | > 100 µM | > 100 µM |  | 32.6 | 17.7 | 88.7 | 14.5 | 42 | 21.5 | 43.5 | 32.4 | 35.8 |  | 0.414 | 
5 | S=c1nc(N2CCCCC2)ss1 | 44.3 | > 100 | > 100 | 18 | 36.6 µM | 30.5 µM | 40.9 µM | > 100 µM | 77 |  |  |  |  |  |  |  |  |  |  | 
6 | O=c1c2cccnc2ncn1CCN1CCCC1 |  | > 100 | > 100 |  | > 100 µM | > 100 µM | > 100 µM | > 100 µM | > 100 |  |  |  |  |  |  |  |  |  |  | 
7 | NNC(=O)/C(NC(=O)c1ccccc1)=C(\N)c1ccc(Cl)cc1 | > 100 | > 100 | > 100 | > 100 | > 100 µM | > 100 µM | > 100 µM | > 100 µM | > 100 |  |  |  |  |  |  |  |  |  |  | 
8 | CC1(O)CCC2(C#N)CCC1C2O (configuration not stated) | > 100 | > 100 | > 100 | 54.6 | > 100 µM | > 100 µM | > 100 µM | > 100 µM | > 100 |  |  |  |  |  |  |  |  |  |  | 
9 | Cc1c2c(cc3c(=O)ccn(CCN(C)C)c13)c(=O)ccn2CCN(C)C | 41.6 | 18.6 | 21.8 |  | 29.7 µM | 34.4 µM | 33.3 µM | 51.3 µM | 25.6 |  |  |  |  |  |  |  |  |  |  | 
10 | COc1cc2c(c(OC)c1OC)-c1ccc(OC)c(=O)cc1[C@@H](N(C)C=O)CC2 | 0.0329 | > 100 | > 100 | > 100 | 0.0247 µM | 0.0401 µM | > 100 µM | > 100 µM | 0.615 |  |  |  |  |  |  |  |  |  |  | 
11 | Cc1nc(C(N)=S)sc1C(=O)C/C(=N/N)C(=O)Nc1ccc(Cl)cc1 |  | > 100 | > 100 | > 100 | > 100 µM | > 100 µM | > 100 µM | > 100 µM | > 100 |  | > 100 |  |  |  |  |  |  |  |  | 
12 | O=C1CCS/C(=N\S(=O)(=O)c2ccc(N3N=C4c5ccccc5CC4C3c3cccs3)cc2)N1C(=O)c1ccccc1 (configuration not stated) |  | > 100 | 17.5 | > 100 | > 100 µM | 6.07 µM | 57.1 µM | 54.7 µM | > 100 | 9.1 | > 100 | > 100 | 0.816 | 5.86 | 2.38 | 2.56 | 16.7 | 24.5 | > 100 | 
13 | C=C1C(=O)O[C@H]2[C@H]1CC/C(Cn1cc(-c3cc(C)c(C)cc3C)nn1)=C\CC[C@@]1(C)O[C@@H]21 | 3.69 | 2.12 | 2.38 | 4.11 | 2.43 µM | 3.12 µM | 3.41 µM | 2.83 µM | 8.45 |  |  | 0.701 | 0.927 | 1.18 | 1.16 | 1.66 | 1.49 | 1.46 | 0.521 | 0.643
14 | CC[C@H](C)[C@@H]1OC(=O)[C@@H](C)[C@@H](CC)NC(=O)[C@H](C)NC(=O)C(C)(C)C(=O)[C@H](C)NC(=O)[C@H](Cc2ccc(OC)cc2)N(C)C(=O)[C@H](C(C)C)N(C)C(=O)CNC(=O)[C@H](CC(C)C)N(C)C(=O)CNC1=O (cyclo(A[X56]G[NMeL]G[NMeV][NMeY](Me)[X32])) |  |  | 1.45 | 3.38 | 0.0508 µM and 0.126 µM | 0.173 µM and 0.462 µM | 9.79 µM and 3.68 µM | 0.299 µM and 0.0735 µM |  |  | 1.26 |  | 0.0335 | 0.0263 | 0.0239 | 0.135 | 0.0433 | 0.0196 | < 0.0154 | 
15 | CCOC(=O)/C(=C\c1ccc[nH]1)C(=O)c1ccccc1 | > 100 | > 100 | > 100 | > 100 | > 100 µM | > 100 µM | > 100 µM | > 100 µM | > 100 |  |  |  |  |  |  |  |  |  |  | 
16 | CCC(C(=O)c1ccccc1)C(CCCC(=O)Nc1c(C)cccc1C)N=O (configuration not stated) | > 100 | > 100 | > 100 | > 100 | > 100 µM | > 100 µM | > 100 µM | > 100 µM | > 100 |  |  |  |  |  |  |  |  |  |  | 
17 | C1COCCOCCOCCOCCO1.CC(=O)[CH-]C(C)=O.CC(=O)[CH-]C(C)=O.CC(=O)[CH-]C(C)=O.[V] | 42.2 | 3.81 | 76.3 | 50 | 13.8 µM | 12.8 µM | 62.3 µM | 52 µM | 23 |  |  | 0.56 | 30.6 | 20.5 | 3.75 | 2.47 | 21.3 | 14.1 | 10.6 | 20.1
18 | CC(C)C(=O)/C=C/c1ccc(Cl)c(Cl)c1 | 47 | > 100 | 45.8 | 87 | 26 µM | 28.8 µM | 29.2 µM | 28.8 µM |  |  |  |  |  |  |  |  |  |  |  | 
